Reference: the kinase profiling compilation of Christmann-Franck et al. (2016)

Assays:
Test in all cases: radiometric filter-binding kinase assay, Kinase HotSpot
Conditions in all cases: compound 0.5 µM; ATP 10 µM
[1] = target: DYRK3 (human) (UniProt O43781)
[2] = target: PRKD1 (human) (UniProt Q15139)
[3] = target: CSNK2A1 (human) (UniProt P68400)
[4] = target: TEK (human) (UniProt Q02763)
[5] = target: CDC42BPB (human) (UniProt Q9Y5S2)
[6] = target: JAK1 JH1 catalytic (human) (UniProt P23458)
[7] = target: EPHA4 (human) (UniProt P54764)
[8] = target: RPS6KA2 KD1 KD2 (human) (UniProt Q15349)
[9] = target: MET (human) (UniProt P08581)
[10] = target: PIM1 (human) (UniProt P11309)
[11] = target: TXK (human) (UniProt P42681)
[12] = target: RPS6KA5 KD2 (human) (UniProt O75582)
[13] = target: CAMK4 (human) (UniProt Q16566)
[14] = target: CSNK1G1 (human) (UniProt Q9HCP0)
[15] = target: NLK (human) (UniProt Q9UBE8)
[16] = target: HIPK4 (human) (UniProt Q8NE63)
[17] = target: PRKACG (human) (UniProt P22612)
[18] = target: FGFR4 (human) (UniProt P22455)
[19] = target: SGK2 (human) (UniProt Q9HBY8)
[20] = target: RPS6KA1 KD1 KD2 (human) (UniProt Q15418)
[21] = target: ULK2 (human) (UniProt Q8IYT8)
[22] = target: MAP3K3 (human) (UniProt Q99759)
[23] = target: CDK2 CCNA2 (human) (UniProt P24941+P20248)
[24] = target: MAP3K8 (human) (UniProt P41279)
[25] = target: ALK (human) (UniProt Q9UM73)
[26] = target: CAMK1 (human) (UniProt Q14012)
[27] = target: PAK2 (human) (UniProt Q13177)
[28] = target: TNK2 (human) (UniProt Q07912)
[29] = target: MAPK11 (human) (UniProt Q15759)
[30] = target: PHKG2 (human) (UniProt P15735)
[31] = target: PRKX (human) (UniProt P51817)
[32] = target: DYRK1B (human) (UniProt Q9Y463)
[33] = target: STK17A (human) (UniProt Q9UEE5)
[34] = target: ACVRL1 (human) (UniProt P37023)
[35] = target: AKT1 (human) (UniProt P31749)
[36] = target: MAP4K5 (human) (UniProt Q9Y4K4)
[37] = target: DCLK2 (human) (UniProt Q8N568)
[38] = target: PRKCB1 (human) (UniProt P05771)
[39] = target: WNK3 (human) (UniProt Q9BYP7)
[40] = target: EPHA2 (human) (UniProt P29317)
[41] = target: MAPK12 (human) (UniProt P53778)
[42] = target: CHEK2 (human) (UniProt O96017)

Sequence of PAK2 (human) (Q13177 whole entry, looked up): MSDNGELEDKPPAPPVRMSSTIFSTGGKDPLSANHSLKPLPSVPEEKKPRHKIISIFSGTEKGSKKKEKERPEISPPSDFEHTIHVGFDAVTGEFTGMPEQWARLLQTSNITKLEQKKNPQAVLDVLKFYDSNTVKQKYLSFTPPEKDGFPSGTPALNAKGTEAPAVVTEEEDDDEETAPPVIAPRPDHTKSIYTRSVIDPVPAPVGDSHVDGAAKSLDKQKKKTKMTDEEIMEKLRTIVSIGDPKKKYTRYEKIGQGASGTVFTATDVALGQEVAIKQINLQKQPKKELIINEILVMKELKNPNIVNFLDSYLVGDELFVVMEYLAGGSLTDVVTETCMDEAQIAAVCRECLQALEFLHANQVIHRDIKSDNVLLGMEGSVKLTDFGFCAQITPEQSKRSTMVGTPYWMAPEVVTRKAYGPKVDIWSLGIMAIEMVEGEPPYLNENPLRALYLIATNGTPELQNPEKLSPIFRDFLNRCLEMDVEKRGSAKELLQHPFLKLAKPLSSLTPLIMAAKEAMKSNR
Sequence of ACVRL1 (human) (P37023 whole entry, looked up): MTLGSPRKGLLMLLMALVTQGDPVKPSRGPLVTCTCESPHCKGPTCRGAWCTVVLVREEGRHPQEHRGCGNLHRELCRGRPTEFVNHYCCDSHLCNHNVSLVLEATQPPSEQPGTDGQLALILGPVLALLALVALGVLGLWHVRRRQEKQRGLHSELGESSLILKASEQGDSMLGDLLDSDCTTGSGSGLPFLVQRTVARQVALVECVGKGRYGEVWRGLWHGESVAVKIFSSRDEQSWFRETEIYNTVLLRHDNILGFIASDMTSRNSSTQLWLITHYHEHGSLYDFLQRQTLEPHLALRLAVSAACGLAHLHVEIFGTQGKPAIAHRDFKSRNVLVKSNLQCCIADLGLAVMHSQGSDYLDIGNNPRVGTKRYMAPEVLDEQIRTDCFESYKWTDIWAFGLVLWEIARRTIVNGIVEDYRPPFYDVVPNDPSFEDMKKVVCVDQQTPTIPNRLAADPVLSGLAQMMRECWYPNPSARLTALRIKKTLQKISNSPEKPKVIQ
Sequence of RPS6KA1 KD1 KD2 (human) (Q15418 whole entry, looked up): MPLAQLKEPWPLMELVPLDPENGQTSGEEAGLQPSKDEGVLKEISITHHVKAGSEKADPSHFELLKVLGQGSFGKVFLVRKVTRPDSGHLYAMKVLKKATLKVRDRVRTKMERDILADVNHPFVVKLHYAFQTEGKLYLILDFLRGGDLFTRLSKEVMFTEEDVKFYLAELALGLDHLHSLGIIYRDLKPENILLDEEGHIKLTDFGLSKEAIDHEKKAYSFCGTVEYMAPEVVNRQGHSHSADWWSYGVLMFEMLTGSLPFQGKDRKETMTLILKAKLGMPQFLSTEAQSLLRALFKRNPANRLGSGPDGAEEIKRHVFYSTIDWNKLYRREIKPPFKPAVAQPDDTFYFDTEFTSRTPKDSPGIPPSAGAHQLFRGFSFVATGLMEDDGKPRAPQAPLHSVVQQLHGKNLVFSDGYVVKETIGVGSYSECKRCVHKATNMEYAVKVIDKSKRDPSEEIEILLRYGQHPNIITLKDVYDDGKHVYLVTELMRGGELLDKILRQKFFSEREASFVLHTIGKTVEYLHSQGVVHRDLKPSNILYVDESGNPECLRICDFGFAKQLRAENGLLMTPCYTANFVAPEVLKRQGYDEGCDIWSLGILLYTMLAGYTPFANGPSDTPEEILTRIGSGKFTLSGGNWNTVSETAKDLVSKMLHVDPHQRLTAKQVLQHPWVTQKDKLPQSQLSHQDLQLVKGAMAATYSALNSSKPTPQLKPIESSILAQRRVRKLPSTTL
Sequence of CSNK2A1 (human) (P68400 whole entry, looked up): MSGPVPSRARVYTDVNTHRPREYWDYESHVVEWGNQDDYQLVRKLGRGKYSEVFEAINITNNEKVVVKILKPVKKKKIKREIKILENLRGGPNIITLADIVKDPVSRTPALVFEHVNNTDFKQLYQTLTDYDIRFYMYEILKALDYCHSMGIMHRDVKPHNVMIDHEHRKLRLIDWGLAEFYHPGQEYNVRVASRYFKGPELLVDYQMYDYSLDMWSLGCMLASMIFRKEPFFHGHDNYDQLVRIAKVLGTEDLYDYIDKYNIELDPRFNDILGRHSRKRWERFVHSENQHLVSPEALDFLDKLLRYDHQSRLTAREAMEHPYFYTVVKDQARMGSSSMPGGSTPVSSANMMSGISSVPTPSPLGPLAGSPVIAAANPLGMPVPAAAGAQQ
Sequence of PHKG2 (human) (P15735 whole entry, looked up): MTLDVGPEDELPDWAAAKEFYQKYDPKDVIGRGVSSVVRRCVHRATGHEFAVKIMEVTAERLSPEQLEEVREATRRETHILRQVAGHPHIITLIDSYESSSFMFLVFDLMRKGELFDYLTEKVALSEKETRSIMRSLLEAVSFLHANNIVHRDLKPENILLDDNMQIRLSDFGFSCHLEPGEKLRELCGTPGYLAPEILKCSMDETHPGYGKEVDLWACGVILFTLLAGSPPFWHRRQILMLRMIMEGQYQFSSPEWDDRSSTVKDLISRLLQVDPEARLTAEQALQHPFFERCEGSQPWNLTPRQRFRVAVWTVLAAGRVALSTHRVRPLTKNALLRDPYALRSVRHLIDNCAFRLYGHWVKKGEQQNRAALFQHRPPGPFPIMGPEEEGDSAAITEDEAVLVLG
Sequence of PRKX (human) (P51817 whole entry, looked up): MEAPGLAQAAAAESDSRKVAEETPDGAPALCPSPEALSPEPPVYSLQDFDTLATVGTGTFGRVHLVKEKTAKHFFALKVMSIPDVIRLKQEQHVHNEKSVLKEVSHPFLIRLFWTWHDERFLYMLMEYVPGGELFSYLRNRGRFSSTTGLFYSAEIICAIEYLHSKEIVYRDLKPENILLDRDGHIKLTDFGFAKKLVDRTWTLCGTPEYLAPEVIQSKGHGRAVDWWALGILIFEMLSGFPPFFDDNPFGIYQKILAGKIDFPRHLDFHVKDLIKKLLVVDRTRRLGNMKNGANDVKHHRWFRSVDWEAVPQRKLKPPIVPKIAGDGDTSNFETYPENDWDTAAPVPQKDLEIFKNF
Sequence of MAPK12 (human) (P53778 whole entry, looked up): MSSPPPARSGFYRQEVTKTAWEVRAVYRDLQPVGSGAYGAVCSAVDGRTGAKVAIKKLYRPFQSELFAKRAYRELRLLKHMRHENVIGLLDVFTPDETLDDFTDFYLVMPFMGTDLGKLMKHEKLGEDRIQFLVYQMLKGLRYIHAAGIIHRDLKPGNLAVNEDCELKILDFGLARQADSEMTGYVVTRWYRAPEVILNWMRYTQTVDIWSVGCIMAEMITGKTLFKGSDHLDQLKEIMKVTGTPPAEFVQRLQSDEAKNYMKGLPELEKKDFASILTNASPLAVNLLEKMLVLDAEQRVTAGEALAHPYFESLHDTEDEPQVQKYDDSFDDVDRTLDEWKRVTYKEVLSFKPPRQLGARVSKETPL
Sequence of MAPK11 (human) (Q15759 whole entry, looked up): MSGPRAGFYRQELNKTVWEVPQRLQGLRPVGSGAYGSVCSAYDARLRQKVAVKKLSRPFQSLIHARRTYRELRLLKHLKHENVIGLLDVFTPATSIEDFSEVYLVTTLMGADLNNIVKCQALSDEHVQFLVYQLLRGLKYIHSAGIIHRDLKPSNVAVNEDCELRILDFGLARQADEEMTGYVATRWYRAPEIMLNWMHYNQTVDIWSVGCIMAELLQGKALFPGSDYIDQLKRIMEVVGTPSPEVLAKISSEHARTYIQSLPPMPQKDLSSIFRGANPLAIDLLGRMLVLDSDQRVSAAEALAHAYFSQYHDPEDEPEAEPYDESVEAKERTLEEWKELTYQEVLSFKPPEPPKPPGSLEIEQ
Sequence of CAMK4 (human) (Q16566 whole entry, looked up): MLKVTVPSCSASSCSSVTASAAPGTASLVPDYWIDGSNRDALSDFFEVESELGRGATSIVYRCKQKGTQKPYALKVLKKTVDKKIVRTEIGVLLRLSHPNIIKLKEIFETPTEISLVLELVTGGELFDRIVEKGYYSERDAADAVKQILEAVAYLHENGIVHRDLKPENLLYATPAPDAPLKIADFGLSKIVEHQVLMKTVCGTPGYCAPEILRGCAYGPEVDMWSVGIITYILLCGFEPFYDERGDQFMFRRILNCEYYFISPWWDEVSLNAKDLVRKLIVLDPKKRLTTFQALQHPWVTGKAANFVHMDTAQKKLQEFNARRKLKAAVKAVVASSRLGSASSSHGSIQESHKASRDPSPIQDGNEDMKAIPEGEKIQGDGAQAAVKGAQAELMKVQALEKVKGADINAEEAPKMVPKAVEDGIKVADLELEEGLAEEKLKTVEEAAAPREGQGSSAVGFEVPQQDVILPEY
Sequence of FGFR4 (human) (P22455 whole entry, looked up): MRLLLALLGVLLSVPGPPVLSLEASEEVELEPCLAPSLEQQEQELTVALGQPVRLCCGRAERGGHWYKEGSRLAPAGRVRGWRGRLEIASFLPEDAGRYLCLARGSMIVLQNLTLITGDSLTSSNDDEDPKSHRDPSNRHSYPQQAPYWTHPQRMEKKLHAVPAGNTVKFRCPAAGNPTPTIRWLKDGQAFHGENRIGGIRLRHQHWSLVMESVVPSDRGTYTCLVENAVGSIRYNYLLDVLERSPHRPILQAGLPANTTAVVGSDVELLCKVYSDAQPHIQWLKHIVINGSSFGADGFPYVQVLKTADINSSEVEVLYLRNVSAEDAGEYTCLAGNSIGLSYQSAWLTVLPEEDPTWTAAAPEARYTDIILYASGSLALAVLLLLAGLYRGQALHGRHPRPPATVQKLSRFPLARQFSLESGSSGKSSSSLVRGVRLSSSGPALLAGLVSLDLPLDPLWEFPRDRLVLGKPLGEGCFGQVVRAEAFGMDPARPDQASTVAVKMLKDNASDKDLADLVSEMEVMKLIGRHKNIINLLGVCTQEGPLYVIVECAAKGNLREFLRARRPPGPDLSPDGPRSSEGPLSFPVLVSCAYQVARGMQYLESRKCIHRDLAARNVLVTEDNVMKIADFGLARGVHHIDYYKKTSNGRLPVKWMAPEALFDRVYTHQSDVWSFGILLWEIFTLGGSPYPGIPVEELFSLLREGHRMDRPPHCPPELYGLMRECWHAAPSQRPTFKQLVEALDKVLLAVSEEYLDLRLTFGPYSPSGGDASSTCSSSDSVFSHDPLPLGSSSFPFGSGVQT

With `O=C1NC(=O)C(c2cn(CCCn3ccnc3)c3ccccc23)=C1Nc1ccccc1` the residual activity [1] was 103%, the residual activity [2] was 94.4% and the residual activity [3] was 100%. The residual activity [4] was 92.3%, the residual activity [5] was 105% and the residual activity [6] was 82.1%. It also gave a residual activity [7] of 111%, a residual activity [8] of 3.17% and a residual activity [9] of 100%. It also gave a residual activity [10] of 79.1%, a residual activity [11] of 95.3% and a residual activity [12] of 36.9%. For the same compound, the residual activity [13] was 103%, the residual activity [14] was 95% and the residual activity [15] was 97%. The residual activity [16] was 90.7%, the residual activity [17] was 117% and the residual activity [18] was 74.6%. For the same compound, the residual activity [19] was 82.4%, the residual activity [20] was 7.54% and the residual activity [21] was 91.7%. The residual activity [22] was 95.8%, the residual activity [23] was 83.4% and the residual activity [24] was 100%. It also gave a residual activity [25] of 97.7%, a residual activity [26] of 106% and a residual activity [27] of 88.5%. It also gave a residual activity [28] of 65.9%, a residual activity [29] of 111% and a residual activity [30] of 107%. For the same compound, the residual activity [31] was 95.5%, the residual activity [32] was 56.3% and the residual activity [33] was 93.1%. It also gave a residual activity [34] of 95.9%, a residual activity [35] of 101% and a residual activity [36] of 66.5%. For the same compound, the residual activity [37] was 96.3%, the residual activity [38] was 9.78% and the residual activity [39] was 100%. For the same compound, the residual activity [40] was 101%, the residual activity [41] was 102% and the residual activity [42] was 88.3%.

With `Oc1cccc(-c2nc(N3CCOCC3)c3oc4ncccc4c3n2)c1` the residual activity [1] was 94.9%, the residual activity [2] was 98.3% and the residual activity [3] was 94.7%. For the same compound, the residual activity [4] was 87.7%, the residual activity [5] was 99.4% and the residual activity [6] was 104%. For the same compound, the residual activity [7] was 96.4%, the residual activity [8] was 88.1% and the residual activity [9] was 97.8%. The residual activity [10] was 91.2%, the residual activity [11] was 94.8% and the residual activity [12] was 86.5%. The residual activity [13] was 103%, the residual activity [14] was 89.4% and the residual activity [15] was 97.4%. It also gave a residual activity [16] of 107%, a residual activity [17] of 101% and a residual activity [18] of 102%. For the same compound, the residual activity [19] was 96.7%, the residual activity [20] was 79.5% and the residual activity [21] was 106%. For the same compound, the residual activity [23] was 104%, the residual activity [24] was 99.2% and the residual activity [25] was 90.5%. It also gave a residual activity [26] of 101%, a residual activity [27] of 97.5% and a residual activity [28] of 89.6%. It also gave a residual activity [29] of 103%, a residual activity [30] of 99.1% and a residual activity [31] of 96.2%. It also gave a residual activity [32] of 98.9%, a residual activity [33] of 93.8% and a residual activity [34] of 105%. For the same compound, the residual activity [35] was 95.3%, the residual activity [36] was 82.4% and the residual activity [37] was 102%. It also gave a residual activity [38] of 97.8%, a residual activity [39] of 93.9% and a residual activity [40] of 99.9%. For the same compound, the residual activity [41] was 93.4% and the residual activity [42] was 90.4%.

In the case of `CC(C)N(CCC(=O)c1ccc2ccccc2c1)Cc1ccccc1`, the residual activity [1] is reported as 107%, the residual activity [2] is reported as 98% and the residual activity [3] is reported as 98.1%. The residual activity [4] was 96.3%, the residual activity [5] was 95% and the residual activity [6] was 112%. The residual activity [7] was 94.5%, the residual activity [9] was 110% and the residual activity [10] was 100%. For the same compound, the residual activity [11] was 97.1%, the residual activity [12] was 102% and the residual activity [13] was 98.3%. For the same compound, the residual activity [14] was 101%, the residual activity [15] was 94.8% and the residual activity [16] was 107%. For the same compound, the residual activity [17] was 107%, the residual activity [18] was 103% and the residual activity [19] was 101%. It also gave a residual activity [20] of 97.6%, a residual activity [21] of 113% and a residual activity [22] of 102%. It also gave a residual activity [23] of 109%, a residual activity [24] of 94.6% and a residual activity [25] of 88.9%. The residual activity [26] was 104%, the residual activity [27] was 107% and the residual activity [28] was 92.4%. The residual activity [29] was 108%, the residual activity [30] was 99.9% and the residual activity [31] was 99.6%. It also gave a residual activity [32] of 101%, a residual activity [33] of 104% and a residual activity [34] of 107%. For the same compound, the residual activity [35] was 100%, the residual activity [36] was 90.2% and the residual activity [37] was 98.3%. The residual activity [38] was 92.6%, the residual activity [39] was 97% and the residual activity [41] was 96.2%. For the same compound, the residual activity [42] was 87.5%.
